≈ marks a conversion by molar mass, not a printed value.
Legend:
[1] = Cytotoxicity against African green monkey Vero cells assessed as cell viability after 72 hrs by MTT assay; type: cell-based; details: chlorocebus sabaeus, read-out: MNCC
[2] = tested on: HT-29; assay: Antiproliferative activity against human HT-29 cells assessed as inhibition of cell proliferation incubated for 72 hrs by CellTiter-Glo assay; type: functional, cell-based; details: HT-29, 72 h
[3] = tested on: Mycobacterium tuberculosis; assay: Antimycobacterial activity against Mycobacterium tuberculosis H37Rv assessed as inhibition of bacterial growth by microdilution alamar blue broth assay; type: functional, organism-based
[4] = target: Acetylcholinesterase (Homo sapiens, UniProt P22303); assay: Inhibition of AChE (unknown origin) using acetylthiocholine chloride as substrate preincubated with enzyme for 15 mins followed by substrate addition by Ellman's method
Sequence of Acetylcholinesterase (P22303 whole entry): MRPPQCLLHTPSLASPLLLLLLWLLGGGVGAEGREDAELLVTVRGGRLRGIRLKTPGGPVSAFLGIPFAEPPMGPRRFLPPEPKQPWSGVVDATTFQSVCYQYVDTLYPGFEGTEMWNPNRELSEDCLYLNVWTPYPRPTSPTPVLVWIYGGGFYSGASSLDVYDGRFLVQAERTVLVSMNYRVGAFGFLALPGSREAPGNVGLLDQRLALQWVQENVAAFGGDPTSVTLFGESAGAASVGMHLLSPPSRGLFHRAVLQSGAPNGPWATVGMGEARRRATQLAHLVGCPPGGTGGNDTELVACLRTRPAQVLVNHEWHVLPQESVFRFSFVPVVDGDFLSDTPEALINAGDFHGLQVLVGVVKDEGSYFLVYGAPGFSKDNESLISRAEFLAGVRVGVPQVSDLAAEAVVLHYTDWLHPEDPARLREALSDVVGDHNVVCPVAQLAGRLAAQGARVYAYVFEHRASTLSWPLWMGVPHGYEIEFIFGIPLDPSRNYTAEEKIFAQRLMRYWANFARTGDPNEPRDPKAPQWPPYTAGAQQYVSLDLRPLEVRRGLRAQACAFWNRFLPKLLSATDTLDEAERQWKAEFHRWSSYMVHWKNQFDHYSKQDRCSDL

[5] = tested on: MCF7; assay: Antiproliferative activity against human MCF7 cells assessed as inhibition of cell proliferation at 50 uM incubated for 72 hrs by CellTiter-Glo assay relative to control; type: functional; details: MCF7, read-out: INH
[6] = tested on: MCF7; assay: Antiproliferative activity against human MCF7 cells assessed as inhibition of cell proliferation incubated for 72 hrs by CellTiter-Glo assay; type: functional, cell-based; details: MCF7, 72 h

| SMILES | MNTC at 72 h [1] [µg/mL] | IC50 [2] [µM] | IC50 [3] [µM] | IC90 [3] [µM] | MIC [3] [µM] | IC50 [4] [µM] | inhibition at 50 µM [5] [%] | IC50 [6] [µM] |
| --- | --- | --- | --- | --- | --- | --- | --- | --- |
| O=C1c2ccccc2C(=O)C12N1CSC[C@@H]1[C@@H](c1cccs1)[C@@]21CSc2ccccc2C1=O | > 6.25 | 94 | 12.9 | 24.6 | 50 (≈ 24.5 µg/mL) | 19.1 | < 50 | 97 |
| CC(C)c1ccc([C@@H]2[C@H]3CSCN3C3(C(=O)c4ccccc4C3=O)[C@]23CSc2ccccc2C3=O)cc1 | > 6.25 | 93.4 | 45 | 76.4 | 100 (≈ 52.6 µg/mL) | 28.3 | < 50 | 91.8 |
| CN1C[C@@H](c2ccc(Br)cc2)[C@@]2(CSc3ccccc3C2=O)C12C(=O)c1ccccc1C2=O | > 6.25 | 88.1 | 29.9 | 41.9 | 50 (≈ 25.9 µg/mL) | 28.3 | < 50 | 101 |
| CN1CC(c2ccccc2Br)[C@@]2(CSc3ccccc3C2=O)C12C(=O)c1ccccc1C2=O (single isomer, unassigned) | > 6.25 | 86.8 | 18.3 | 36.5 | 50 (≈ 25.9 µg/mL) | 27.1 | < 50 | 92.9 |
| COc1ccc([C@@H]2CN(C)C3(C(=O)c4ccccc4C3=O)[C@]23CSc2ccccc2C3=O)cc1 | > 6.25 | 93.4 | 18.3 | 36.5 | 50 (≈ 23.5 µg/mL) | 1.16 | < 50 | 102 |
| CN1C[C@@H](c2cccc(Br)c2)[C@@]2(CSc3ccccc3C2=O)C12C(=O)c1ccccc1C2=O | > 6.25 | 108 | 5.81 | 16.1 | 25 (≈ 13 µg/mL) | 19.8 | < 50 | 110 |
| CN1C[C@@H](c2cccs2)[C@@]2(CSc3ccccc3C2=O)C12C(=O)c1ccccc1C2=O | > 6.25 | 95.9 | 25.9 | 44.6 | 100 (≈ 44.6 µg/mL) | 21.2 | < 50 | 123 |
| Cc1ccc([C@@H]2[C@H]3CSCN3C3(C(=O)c4ccccc4C3=O)[C@]23CSc2ccccc2C3=O)cc1 | > 6.25 | 90 | 28.6 | 47.7 | 50 (≈ 24.9 µg/mL) | 7.11 | < 50 | 107 |
| NNC(=O)c1ccncc1 [ISONIAZID] | > 6.25 |  |  | 0.29 | 0.31 (≈ 0.0425 µg/mL) |  |  |  |
| CN1C[C@@H](c2cccc(F)c2)[C@@]2(CSc3ccccc3C2=O)C12C(=O)c1ccccc1C2=O | > 6.25 | 82.1 | 4.28 | 9.86 | 25 (≈ 11.4 µg/mL) | 24.6 | < 50 | 108 |
| O=C1c2ccccc2C(=O)C12N1CSC[C@@H]1[C@@H](c1ccc(F)cc1)[C@@]21CSc2ccccc2C1=O | > 6.25 | 95.9 | 13.2 | 25.9 | 50 (≈ 25.1 µg/mL) | 19.8 | < 50 | 116 |
| CC[C@@H](CO)NCCN[C@@H](CC)CO [ETHAMBUTOL] | > 6.25 |  | < 1.56 |  | 12.5 (≈ 2.55 µg/mL) |  |  |  |
| O=C1c2ccccc2C(=O)C12N1CSC[C@@H]1[C@@H](c1ccccc1)[C@@]21CSc2ccccc2C1=O | > 6.25 | 92.2 | 16.3 | 25.5 | 100 (≈ 48.4 µg/mL) | 12.9 | < 50 | 93.5 |
| CN1C[C@@H](c2ccccc2)[C@@]2(CSc3ccccc3C2=O)C12C(=O)c1ccccc1C2=O | > 6.25 | 86.7 | 15.2 | 27.9 | 100 (≈ 44 µg/mL) | 11.1 | < 50 | 104 |
| O=C1c2ccccc2C(=O)C12N1CSC[C@@H]1[C@@H](c1cccc(F)c1)[C@@]21CSc2ccccc2C1=O | > 6.25 | 91.7 | 16.4 | 22 | 50 (≈ 25.1 µg/mL) | 12.2 | < 50 | 116 |
| O=C1c2ccccc2C(=O)C12N1CSC[C@@H]1[C@@H](c1ccc(Br)cc1)[C@@]21CSc2ccccc2C1=O | > 6.25 | 86.8 | 21.9 | 47.9 | 50 (≈ 28.1 µg/mL) | 34.6 | < 50 | 92.9 |
| CN1C[C@@H](c2ccc(Cl)cc2)[C@@]2(CSc3ccccc3C2=O)C12C(=O)c1ccccc1C2=O | > 6.25 | 94 | 8.46 | 12.4 | 50 (≈ 23.7 µg/mL) | 22.2 | < 50 | 97 |
| COc1ccc([C@@H]2[C@H]3CSCN3C3(C(=O)c4ccccc4C3=O)[C@]23CSc2ccccc2C3=O)cc1 | > 6.25 | 97.2 | 12.9 | 24.6 | 50 (≈ 25.7 µg/mL) | 1.1 | < 50 | 86 |
| Cc1ccc([C@@H]2CN(C)C3(C(=O)c4ccccc4C3=O)[C@]23CSc2ccccc2C3=O)cc1 | > 6.25 | 101 | 47.2 | 66.5 | 100 (≈ 45.4 µg/mL) | 6.6 | < 50 | 105 |
| COc1cccc2c1C(=O)c1c(O)c3c(c(O)c1C2=O)C[C@@](O)(C(=O)CO)C[C@@H]3O[C@H]1C[C@H](N)[C@H](O)[C@H](C)O1 [DOXORUBICIN] |  | 12.9 |  |  |  |  |  |  |
| O=C1c2ccccc2C(=O)C12N1CSC[C@@H]1[C@@H](c1cccc3ccccc13)[C@@]21CSc2ccccc2C1=O | > 6.25 | 93.4 | 28.6 | 47.7 | 50 (≈ 26.7 µg/mL) | 16.5 | < 50 | 102 |
| O=C1c2ccccc2C(=O)C12N1CSC[C@@H]1[C@@H](c1cccc(Br)c1)[C@@]21CSc2ccccc2C1=O | > 6.25 | 79.6 | 17.2 | 35.5 | 50 (≈ 28.1 µg/mL) | 38.3 | < 50 | 84.8 |
| CN1C[C@@H](c2ccc(F)cc2)[C@@]2(CSc3ccccc3C2=O)C12C(=O)c1ccccc1C2=O | > 6.25 | 99.6 | 11.1 | 22 | 50 (≈ 22.9 µg/mL) | 23.3 | < 50 | 105 |
| CN1C[C@@H](c2cccc3ccccc23)[C@@]2(CSc3ccccc3C2=O)C12C(=O)c1ccccc1C2=O | > 6.25 | 97.2 | 6.87 | 14.6 | 25 (≈ 12.2 µg/mL) | 2.12 | < 50 | 86 |
| O=C1c2ccccc2C(=O)C12N1CSC[C@@H]1[C@@H](c1ccccc1Br)[C@@]21CSc2ccccc2C1=O | > 6.25 |  |  |  |  |  |  |  |
| N[C@@H]1CONC1=O [CYCLOSERINE] | > 6.25 |  |  |  | 25 (≈ 2.55 µg/mL) |  |  |  |
| CCc1nc(N)nc(N)c1-c1ccc(Cl)cc1 [PYRIMETHAMINE] | > 6.25 |  |  |  | 100 (≈ 24.9 µg/mL) |  |  |  |
